For series [1], the system named is Plasmodium falciparum. Description: Antiplasmodial activity against asexual erythrocytic stage of Plasmodium falciparum 3D7 assessed as reduction in parasite growth after 72 hrs by LDH assay. The format is functional, organism-based. The following applies: 3D7, 72 h.
Series [2] relates to HL-60. Briefly: Cytotoxicity against human HL60 cells at 10 uM incubated for 72 hrs by MTT assay. The format is cell-based. Particulars: hl-60, 72 h.
The subject of series [3] is HeLa. Briefly: Cytotoxicity against human HeLa cells at 10 uM incubated for 72 hrs by MTT assay. The class given is cell-based.
The subject of series [4] is HL-60. Briefly: Cytotoxicity against human HL60 cells incubated for 72 hrs by MTT assay. The format is cell-based. The following applies: HL-60, 72 h. (Formazan colour is commonly taken as a measure of viable cells.)

Among the data in ChEMBL document CHEMBL4602682, “Ikoamide, an Antimalarial Lipopeptide from an Okeania sp. Marine Cyanobacterium” (J Nat Prod, 2020) are IC50 and Activity values, retold here.

Molecules are shown by their SMILES.

Usually IC50 stands for the concentration at which inhibition is half-maximal. On to `CCC[C@H](C[C@@H](CC(=O)N(C)[C@@H](C(=O)N[C@H](CO)C(=O)N[C@H](CC(C)C)C(=O)N(C)[C@@H](CC(C)C)C(=O)N[C@H](C(=O)N(C)[C@H](C(=O)N(C)[C@@H](CCC(N)=O)C(=O)N(C)[C@@H](Cc1ccc(OC)cc1)C(=O)OC)[C@@H](C)CC)[C@@H](C)O)[C@@H](C)CC)OC)OC`, for which, in series [1], the 50% inhibitory concentration (IC50) worked out at 140 nM. Further, the Activity entry in series [2] and in series [3] was “Non-Toxic” each time.
Consider `COc1cccc2c1C(=O)c1c(O)c3c(c(O)c1C2=O)C[C@@](O)(C(=O)CO)C[C@@H]3O[C@H]1C[C@H](N)[C@H](O)[C@H](C)O1` [DOXORUBICIN], for which the IC50 in series [4] stood at 46 nM.
